Assay results reported in EP0327365B1, “Improvements in or relating to modified haptens useful as imaging and therapeutic agents” (HYBRITECH INCORPORATED, priority 1988, dated 1989).

How the values were obtained:
[1] = test system: antibody CHA255; experiment: Antibody CHA255 binding assay (Centrifree ultrafiltration); set-up: species or system BALB/c mice; conditions: ⁹⁰Y³⁺ or ¹¹¹In³⁺ chelate of DTPA alone
Procedure: As indicated, the monoclonal antibody CHA255 is specific for the In³⁺-benzyl EDTA complex. The affinity and characterization have been described previously in Nature, 316, 265 (1985). Binding assays were performed to verify the identity of the haptens designated as DB-I to DB-VIII. […] For the ⁹⁰Y³⁺ hapten chelate, in particular, CHA255 binding required the presence of the In-benzyl-EDTA moiety as provided in the compounds of the invention. The labeled DB hapten chelates were combined with antibody CHA255 in PBS (10 mM sodium phosphate, 150 mM sodium chloride, pH 7.4) containing 44 »g/ml of human serum albumin and 0.05% Triton-X-100 detergent. Concentrations of the radiolabeled hapten chelating agent and antibody are 5 nM and 133 nM, respectively. The mixture is vortexed and allowed to stand at room temperature for 15 minutes, after which it is transferred to an Amicon Centrifree™ device, with a NMW limit of 30,000, and centrifuged to separate antibody-bound chelate from free hapten chelate. The species bound to the antibody is retained by the membrane and the free chelate flows through the membrane into the filtrate. The extent of antibody-hapten chelate binding is then determined.

[2] = Aqueous solubility (observation during synthesis); type: physicochemical; conditions: metal-free chelating agent, in words
[3] = test system: T-380 tumors; experiment: Hapten biodistribution, premix protocol with bifunctional antibody ECH037.2; type: in vivo, nude mice; set-up: TOTAL RECOV: unit not given here; conditions: for % DOSE PER GRAM, KIDNEY / % DOSE PER GRAM, LIVER / % DOSE PER GRAM, TUMOR / FECES / TOTAL RECOV / URINE / % DOSE PER GRAM, BLOOD / TUMOR/BLOOD: premix with 20 µg ECH037.2; for % DOSE PER GRAM, BLOOD: 111In-labeled hapten i.v.; for TUMOR/BLOOD: ratio; for Percent Injected Dose in Feces: premix protocol (Table VI)
Procedure: (§1) Two protocols were used for examining the biodistribution of the derivatized haptens in the presence of the bifunctional antibody ECH037.2. In a premix protocol, ECH037.2 and the derivatized hapten were combined prior to injection in the animals. In the prelocalization protocol, ECH037.2 was injected into the animals, and the antibody was allowed to prelocalize for 24 hours prior to injection of the radiolabeled hapten.
(§2) Biodistribution studies were performed in nude mice carrying subcutaneous implants of the human colon carcinoma cell line T-380 which expresses the carcinoembryonic antigen (CEA) recognized by ECH037.2. Briefly, Balb/C Nu/Nu mice were injected subcutaneously with a minced preparation of T-380 tumor implants and maintained for approximately two weeks, or until the tumor implant had grown to a size of approximately 0.5 grams as described by Hagan, P.L., et al. J. Nuc. Med., 26 1418-1423 (1985). Mice were kept in a sterile environment to prevent complications due to bacterial or viral infections. Biodistributions were performed as described by Halpern, S., et al., Cancer Res. 43, 5347-5355 (1983). Briefly, the radiolabeled haptens were injected intravenously in […], and the pharmacokinetics were evaluated at several time points post-injection. At these times, mice were sacrificed and weighed. Organs were removed, their weight recorded, and each organ was then washed in sterile PBS, pH 7.0, and fixed in formalin solution. Samples of blood, urine and feces also were collected and their weight similarly recorded. The organs, or a portion thereof, were transferred to clean tubes and their radioactive content was determined in a well-type gamma-counter.
(§3) Relative radioactive content of each organ was expressed as a percentage of injected dose per organ.
To indium-label the haptens of the invention 10 »l of 0.1 mM ligand was combined with X »l of ¹¹¹InCl₃ (in 50 mM HCl) and (x+10) »l of 0.26 M ammonium citrate, pH 6.0. X is calculated by the following equation: X = (200 »Ci)/(A »Ci/»l) [formula] where A is the specific activity of the ¹¹¹In.
The labeling was done in an acid-washed microfuge tube. After combining all of the components above, the solution was vortexed and allowed to stand at room temperature for 15 minutes.
Incorporation of the ¹¹¹In into the chelating agent was determined by TLC on silica in a methanol/aqueous ammonium acetate solvent system as described by Meares, et al. (Anal. Biochem., 142, 68-75 (1984)). Greater than 95% incorporation of the radioactivity into the chelate was required for the sample to be submitted for a biodistribution assay.
Prior to injection the ¹¹¹In-labeled hapten was diluted into freshly prepared isotonic sodium bicarbonate (1.39% w/v) containing 1 mg/ml normal human serum albumin (Buminate, 25% solution, Travenol Laboratories, Glendale, California) to which the bifunctional antibody had been added. The final composition of the solution was 0.2 mg/ml ECH037.2, 0.5 »M chelate, 0.1 »Ci/»l ¹¹¹In, all in a volume of 2.0 ml. For the biodistribution studies, 100 »l of the solution was injected into the tail vein of each animal.

[4] = test system: T-380 tumors; experiment: Hapten biodistribution, prelocalization protocol with bifunctional antibody ECH037.2; type: in vivo, nude mice
Procedure: as §1, §2, §3
To indium-label the chelating agents for the prelocalization protocol, 5 »l of 0.1 mM chelating agent was combined with X »l of ¹¹¹InCl₃ (in 50 mM HCl) and (x+5) »l of 0.26 M ammonium citrate, pH 6.0. X was calculated by the following equation: X = 200 »Ci/A »Ci/»l [formula] where A is the specific activity of the ¹¹¹InCl₃ solution. The solution was vortexed and allowed to stand at room temperature for 15 minutes, after which incorporation of ¹¹¹In label into the chelating agent was determined as described for the premix protocol. If at least 95 percent of the ¹¹¹In was bound by the chelating agent, the material was then diluted to a final volume of 2 ml with isotonic (1.39 percent, w/v) sodium bicarbonate containing 1 mg/ml normal human serum albumin. This material (100 »l) then was injected into each tail vein of mice which had each been injected 24 hours earlier with 5 »g of ECH037.2 in 100 »l isotonic sodium bicarbonate containing 1 mg/ml normal human serum albumin.

[5] = test system: monoclonal antibody CHA255; experiment: Determination of hapten-antibody dissociation rates; type: binding, BALB/c mice; conditions: 22°C; indium complex of hapten from CHA255 after 100 fold excess of indium-115 loaded hapten
Procedure: Hapten-antibody dissociation rates were determined using monoclonal antibody CHA255, prepared as described in Example 2A, by measuring the quantity of ¹¹¹In³⁺ chelate released from the antibody hapten complex as a function of time after addition of a 100 fold excess (over antibody binding sites) of indium-115 loaded hapten. Thus, for each hapten, a 700 »l solution was prepared containing: antibody at a concentration of 160 nM; indium loaded hapten, trace labeled with ¹¹¹In (total concentration = 160 nM); normal human serum albumin at a total concentration of 1.5 mg/mL; and isotonic phosphate buffered saline, (10 mM PO₄²⁻, 150 mM NaCl, pH 7.2). Indium-115 loaded hapten was added to a final Concentration of […]. Reactions were stirred by placing the sample containers ir a rack mounted on a vortexer head.
At various times after addition of the excess hapten, […] portions of the reaction solutions were transferred to Centrifree tubes (Amicon Corperation, Danvers, Massachusetts) and centrifuged at 1500xg for eight to ten minutes. The reaction time was taken to be the time between addition of the excess hapten and the time the centrifuge reached the desired velocity. Six timepoints, each in duplicate, were obtained over a range of about two reaction half-lives for each rate constant determination. A 200 »l portion from each centrifuged and uncentrifuged solution was then counted for ¹¹¹In. The relative concentration of free hapten was taken to be the ratio of counts in the centrifuged solution to the uncentrifuged solution at each timepoint. Times were recorded to the nearest tenth of a minute.
Room temperature rate constants were measured without the aid of a constant temperature bath. The ambient temperature remained at 22°±1 C.
Rate constants and standard deviations were obtained from a plot of the logarithm of relative complex concentration vs. time. Data were analyzed using the linear regression module of the RS/1 Program (BBN Software Products Corporation, Cambridge, Massachusetts).
Control samples were included in each experiment to determine: A) that the initial condition of 100% of labeled hapten bound to antibody was met, and B) that in the absence of antibody, 100% of counts were able to penetrate the Centrifree membrane. […]

Row | Compound | % DOSE PER GRAM, KIDNEY ([3]; 24 hours) [% DOSE PER GRAM] | % DOSE PER GRAM, LIVER ([3]; 24 hours) [% DOSE PER GRAM] | % DOSE PER GRAM, TUMOR ([3]; 24 hours) [% DOSE PER GRAM] | FECES ([3]; 24 hours) | TOTAL RECOV ([3]; 24 hours) | URINE ([3]; 24 hours) | % DOSE PER GRAM, BLOOD ([3]; 24 hours) [% DOSE PER GRAM] | TUMOR/BLOOD ([3]; 24 hours) | Percent Injected Dose in Feces ([3]; 24 hrs.) [Percent Injected Dose] | % DOSE PER GRAM, KIDNEY ([3]; 48 hours) [% DOSE PER GRAM] | % DOSE PER GRAM, LIVER ([3]; 48 hours) [% DOSE PER GRAM] | % DOSE PER GRAM, TUMOR ([3]; 48 hours) [% DOSE PER GRAM] | FECES ([3]; 48 hours) | TOTAL RECOV ([3]; 48 hours) | URINE ([3]; 48 hours) | % DOSE PER GRAM, BLOOD ([3]; 48 hours) [% DOSE PER GRAM] | TUMOR/BLOOD ([3]; 48 hours) | Percent Injected Dose in Feces ([3]; 48 hrs.) [Percent Injected Dose] | other results
1 | O=C(O)CN(CCN(CC(=O)O)CC(=O)O)CCN(CC(=O)O)CC(=O)O [DTPA, diethylenetriaminepentaacetic acid] | – | – | – | – | – | – | – | – | – | – | – | – | – | – | – | – | – | – | binding to CHA255 [1]: neither ⁹⁰Y³⁺ or ¹¹¹In³⁺ DTPA, alone, bound to CHA255
2 | CCCCCCCCNC(=S)Nc1ccc(CC(CN(CC(=O)O)CC(=O)O)N(CC(=O)O)CC(=O)O)cc1 (centres unmarked) [OTUBE] | 0.5 | 0.8 | 1.1 | 56.5% of total injected dose | 68.9 | 8.9% of total injected dose | 1.1 | 1.00 | 56.5 | 0.2 | 0.6 | 0.7 | 68.4% of total injected dose | 81.4 | 10.9% of total injected dose | 0.5 | 1.40 | 68.4 | aqueous solubility [2]: Low aqueous solubility; amount of hapten in the tumor ([3]; 24 hrs., premix protocol): 1.1 percent injected dose/gram; injected material excreted in the feces ([3]; 48 hrs. post injection, premix protocol): 68.4% of the injected material; amount of hapten in the tumor ([3]; 48 hrs., premix protocol): 0.7 percent injected dose/gram
3 | O=C(O)Cc1ccc(NC(=S)Nc2ccc(CC(CN(CC(=O)O)CC(=O)O)N(CC(=O)O)CC(=O)O)cc2)cc1 (centres unmarked) [PHATUBE] | 1.2 | 1.7 | 8.4 | 22.0% of total injected dose | 59.7 | 21.7% of total injected dose | 6.2 | 1.35 | 22.0 | 0.8 | 1.1 | 6.9 | 34.9% of total injected dose | 66.4 | 22.4% of total injected dose | 3.7 | 1.86 | 34.9 | fecal excretion ([4]; 5 µg ECH037.2 24 hours earlier, all time points (4, 24, 48 hours), Figures 3-5, in words): high degree of fecal excretion; tumor/organ values ([4]; Figures 6-8 (4, 24, 48 hours), in words): exceptional; t1/2, Dissociation Half-Lives [5]: 1.19 h
